In one assay the target is Keap1/Nrf2 (Homo sapiens, UniProt Q14145). Nature of the assay: Inhibition of recombinant GST-His-tagged Keap1-DC domain (321 to 609 residues) (unknown origin) expressed in Escherichia coli/FAM-labeled Nrf2 (unknown origin) interaction measured after 30 mins by fluorescence polarization assay. In general terms: Fluorescence polarisation rises when a labelled molecule tumbles more slowly, as on binding a larger partner.

For the next assay, the species on record is Homo sapiens. Briefly: Selectivity index, ratio of IC50 for recombinant GST-His-tagged Keap1-DC domain (321 to 609 residues) (unknown origin) expressed in Escherichia coli/FAM-labeled Nrf2 (unknown origin) interaction to IC50 for recombinant GST-His-tagged Keap1-DC domain (321 to 609 residues) (unknown origin) expressed in Escherichia coli/FAM-labeled phosphorylated p62 (unknown origin) interaction.

Assay [1] concerns the target Sequestosome-1/Kelch-like ECH-associated protein 1 (Homo sapiens, UniProt Q14145). Briefly: Inhibition of recombinant GST-His-tagged Keap1-DC domain (321 to 609 residues) (unknown origin) expressed in Escherichia coli/FAM-labeled phosphorylated p62 (unknown origin) interaction measured after 30 mins by fluorescence polarization assay.

Chain of Sequestosome-1/Kelch-like ECH-associated protein 1 (Q14145 whole entry, the tested form may be a part): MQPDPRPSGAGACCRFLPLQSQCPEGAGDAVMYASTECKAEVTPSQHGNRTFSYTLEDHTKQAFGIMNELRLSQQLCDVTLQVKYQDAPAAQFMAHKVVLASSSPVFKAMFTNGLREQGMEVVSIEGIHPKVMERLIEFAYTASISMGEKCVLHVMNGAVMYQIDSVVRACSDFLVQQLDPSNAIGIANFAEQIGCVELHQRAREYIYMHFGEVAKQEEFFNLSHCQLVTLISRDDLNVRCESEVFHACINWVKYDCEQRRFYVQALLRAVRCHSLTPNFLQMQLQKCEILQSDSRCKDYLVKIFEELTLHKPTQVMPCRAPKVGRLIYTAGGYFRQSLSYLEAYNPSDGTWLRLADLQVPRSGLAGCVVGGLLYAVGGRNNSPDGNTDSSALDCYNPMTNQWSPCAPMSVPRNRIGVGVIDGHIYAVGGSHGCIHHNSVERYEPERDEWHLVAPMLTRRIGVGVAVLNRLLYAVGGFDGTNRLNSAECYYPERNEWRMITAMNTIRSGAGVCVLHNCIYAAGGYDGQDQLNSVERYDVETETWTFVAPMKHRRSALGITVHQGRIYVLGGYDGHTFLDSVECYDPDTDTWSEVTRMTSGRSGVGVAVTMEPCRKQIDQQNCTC
Chain of Sequestosome-1/Kelch-like ECH-associated protein 1 (Q13501 whole entry, further chain, the tested form may be a part): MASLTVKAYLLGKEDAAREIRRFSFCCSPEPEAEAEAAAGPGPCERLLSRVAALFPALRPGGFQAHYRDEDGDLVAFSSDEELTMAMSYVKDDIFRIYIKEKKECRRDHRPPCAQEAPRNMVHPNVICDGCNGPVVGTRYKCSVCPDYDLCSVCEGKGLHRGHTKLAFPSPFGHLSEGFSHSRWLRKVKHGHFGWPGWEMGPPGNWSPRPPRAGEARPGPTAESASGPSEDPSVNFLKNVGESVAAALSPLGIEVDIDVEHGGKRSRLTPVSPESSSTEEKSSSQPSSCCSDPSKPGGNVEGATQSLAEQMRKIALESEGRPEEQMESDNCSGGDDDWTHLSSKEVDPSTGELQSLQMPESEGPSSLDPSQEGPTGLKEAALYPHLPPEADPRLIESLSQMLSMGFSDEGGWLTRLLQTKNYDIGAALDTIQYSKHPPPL
Chain of Keap1/Nrf2 (Q16236 whole entry, the tested form may be a part): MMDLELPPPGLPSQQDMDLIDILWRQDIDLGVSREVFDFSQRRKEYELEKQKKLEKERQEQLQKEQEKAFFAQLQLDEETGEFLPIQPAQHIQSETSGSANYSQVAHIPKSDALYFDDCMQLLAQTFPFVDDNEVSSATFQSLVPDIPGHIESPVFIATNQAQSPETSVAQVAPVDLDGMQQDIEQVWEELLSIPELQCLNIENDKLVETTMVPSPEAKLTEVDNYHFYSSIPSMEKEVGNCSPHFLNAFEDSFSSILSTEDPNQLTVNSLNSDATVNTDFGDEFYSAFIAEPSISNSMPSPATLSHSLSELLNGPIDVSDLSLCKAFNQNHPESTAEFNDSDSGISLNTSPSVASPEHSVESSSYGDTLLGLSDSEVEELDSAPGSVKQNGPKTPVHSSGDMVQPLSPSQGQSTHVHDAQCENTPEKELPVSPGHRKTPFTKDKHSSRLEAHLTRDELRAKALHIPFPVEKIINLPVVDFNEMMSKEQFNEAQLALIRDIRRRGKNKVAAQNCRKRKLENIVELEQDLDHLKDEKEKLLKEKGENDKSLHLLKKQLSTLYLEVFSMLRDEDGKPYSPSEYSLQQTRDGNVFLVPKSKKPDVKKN
Chain of Keap1/Nrf2 (Q14145 whole entry, the tested form may be a part): as the sequence (Q14145 whole entry, the tested form may be a part) above

Broadly, the IC50 is the point on the concentration scale where inhibition reaches its midpoint. As to `CCOc1ccc(S(=O)(=O)Nc2cc(CCC(=O)O)c(NS(=O)(=O)c3ccc(OCC)cc3)c3ccccc23)cc1`, the IC50 at Keap1/Nrf2 is 0.23 µM; in assay [1], 0.19 µM. In addition, in the assay filed under Homo sapiens, the Ratio IC50 is 1.2.

Take `CCOc1ccc(S(=O)(=O)Nc2cc(CC(=O)O)c(NS(=O)(=O)c3ccc(OCC)cc3)c3ccccc23)cc1`: the half-maximal inhibitory concentration (IC50) was found to be 0.32 µM on Keap1/Nrf2 and 0.23 µM in assay [1]. The Ratio IC50 in the assay listed under Homo sapiens was 1.4.

For `CCOc1ccc(S(=O)(=O)Nc2cc(SCC(=O)OC)c(NS(=O)(=O)c3ccc(OCC)cc3)c3ccccc23)cc1`, the IC50 was 0.72 µM on Keap1/Nrf2 and 0.37 µM in assay [1]. In addition, the Ratio IC50 in the assay filed under Homo sapiens was 1.9.

Regarding `CCOc1ccc(S(=O)(=O)Nc2cc(CC(C)=O)c(NS(=O)(=O)c3ccc(OCC)cc3)c3ccccc23)cc1`, the figures for the IC50 (at Keap1/Nrf2; in assay [1]) were 6.2 µM and 1.5 µM, respectively. Further, the Ratio IC50 in the assay listed under Homo sapiens is 4.1.

As to `CCOc1ccc(S(=O)(=O)Nc2cc(CCCC(=O)O)c(NS(=O)(=O)c3ccc(OCC)cc3)c3ccccc23)cc1`, the IC50 on Keap1/Nrf2 stood at 0.15 µM. Also, in the assay listed under Homo sapiens, the Ratio IC50 is 1.

On to `CCOc1ccc(S(=O)(=O)Nc2cc(SCC(=O)O)c(NS(=O)(=O)c3ccc(OCC)cc3)c3ccccc23)cc1`, for which the IC50 on Keap1/Nrf2 is 0.2 µM; in assay [1], 0.18 µM. The Ratio IC50 in the assay filed under Homo sapiens was 1.1.

In the case of `COc1ccc(S(=O)(=O)Nc2cc(CC(C)=O)c(NS(=O)(=O)c3ccc(OC)cc3)c3ccccc23)cc1`, the 50% inhibitory concentration (IC50) at Keap1/Nrf2 came out at 3.2 µM; in assay [1], 2.4 µM. Also, the Ratio IC50 in the assay filed under Homo sapiens was 1.3.

Take `CCOc1ccc(S(=O)(=O)Nc2cc(Sc3nc[nH]n3)c(NS(=O)(=O)c3ccc(OCC)cc3)c3ccccc23)cc1`: the results for the IC50 (on Keap1/Nrf2; in assay [1]) were 1.3 µM and 1 µM, respectively. For the same compound, the Ratio IC50 in the assay filed under Homo sapiens was determined as 1.3.

In the case of `CCOc1ccc(S(=O)(=O)Nc2ccc(NS(=O)(=O)c3ccc(OCC)cc3)c3ccccc23)cc1`, the IC50 on Keap1/Nrf2 worked out at 2.8 µM; in assay [1], 1.4 µM. For the same compound, the Ratio IC50 in the assay listed under Homo sapiens came out at 2.

Source of the values: ChEMBL document CHEMBL3870333, “Synthesis of Keap1-phosphorylated p62 and Keap1-Nrf2 protein-protein interaction inhibitors and their inhibitory activity” (Bioorg Med Chem Lett, 2016).
